pEC50: −log10 of the molar value.
Tested on: Myotonic Dystrophy 1 affected patient fibroblasts (Coriel GM04602; 1600 CTG repeats)
Experiment: DM1 foci reduction assay (EC50 assay; CAG10-Cy3 FISH, foci per nucleus)
Type: cell-based
Conditions: Homo sapiens, Fibroblast; DM1 patient fibroblasts, 48 h treatment, foci per nucleus; read-out: DM1 EC50, 48 h
Experimental: DM1 Foci Reduction Assay Methods
Myotonic Dystrophy 1 affected patient fibroblasts (Coriel GM04602; 1600 CTG repeats) and wild type fibroblasts (Coriell GM07492; control line) were cultured separately in Gibco DMEM (1×)+4.5 g/L D-Glucose+L-Glutamine+[…] Sodium Pyruvate, supplemented with 10% FBS and 1× Pen/Strep. Cells were maintained in an incubator at 37° C. and 5% CO2 with media refreshed every 48-72 hours.
At 90-95% confluency, both cell lines were harvested using Trypl-E then pelleted at 500×g for 5 minutes and were resuspended in fresh media. DM1 fibroblasts were seeded in Agilent 96 well black plates at a density of 5,000 cells/well in 200 μL media; and 8 wells were reserved for control fibroblasts. Plates were returned to incubator for 24 hours at 37° C. and 5% CO2.
Compounds were diluted from 10 mM stock to 1 mM in DMSO and then diluted once more to 6 μM (2× concentration) in media. Media was removed from all plates and cells were replenished with 100 μL media. Cells were treated in 8-point dose response, 1:3 fold dilution, 3 μM top dose via addition of 100 μL of 6 μM (2× concentration) compound to the 100 μL media with cells. Plates were returned to incubator for 48 hours at 37° C. and 5% CO2.
Following treatment, compounds were removed, and plates were washed with PBS, then cells were fixed in 75 μL 4% PFA solution for 20 minutes at room temperature. Plates were washed twice with PBS and twice with cold 70% ethanol before permeabilization with 250 μL cold 70% ethanol for 24-72 hours at −20° C.
After permeabilization, plates were washed once with a 30% formamide and 2×SSC buffer and rehydrated in that buffer for 15 minutes at room temperature. Cells were incubated overnight at 37° C. in 75 μL of a hybridization solution containing 30% formamide, 2×SSC, 25 mg/mL dextran sulfate, 2.5 mg/mL BSA, 0.2 μg/mL Herring sperm DNA, 2 mM vanadyl-ribonucleoside complex, and 5 nM CAG10-Cy3 probe.
Plates were washed once with 30% formamide in 2×SSC buffer, then twice with the buffer for 30 minutes at 37° C., 300 RPM in an incubating plate shaker. Cells were stained with 75 μL of 2.5 μg/mL DAPI in PBS for 5 minutes at room temperature. Plates were then washed twice with PBS and stored in 250 μL PBS. Plates were sealed with adhesive foil and wiped down with 70% ethanol.
Cells were imaged on a Cytation5 with a 20× objective sampling from 4 areas of each well. Nuclei were captured under DAPI channel and foci under RFP channel. Plates were analyzed on an average foci per nucleus per well basis.

| Compound | pEC50 |
| --- | --- |
| CCCNC(=O)CCNC(=O)c1nc(NC(=O)c2cc(NC(=O)CCNC(=O)c3nc(NC(=O)CCCNC(=O)c4cc(NC(=O)c5nc(NC(=O)CCNC(=O)c6cc(NC(=O)c7nccn7C)cn6C)cn5C)cn4C)cn3C)cn2CCCCCN(CCOCCOCCOCCOC)CCOCCOCCOCCOC)cn1C [Compound B-157] | < 6.00 |
| CCCNC(=O)CCNC(=O)c1nc(NC(=O)c2cc(NC(=O)CCNC(=O)c3nc(NC(=O)CCCNC(=O)c4cc(NC(=O)c5nc(NC(=O)CCNC(=O)c6cc(NC(=O)c7nccn7C)cn6C)cn5C)cn4C)cn3C)cn2CCCCC(=O)N(CCOCCOCCOCCOC)CCOCCOCCOCCOC)cn1C [Compound B-159] | < 6.00 |
| COCCOCCOCCOCCN(CCOCCOCCOCCOC)C(=O)CCCCn1cc(NC(=O)CCNC(=O)c2nc(NC(=O)CCCNC(=O)c3cc(NC(=O)c4nc(NC(=O)CCNC(=O)c5cc(NC(=O)c6nccn6C)cn5C)cn4C)cn3C)cn2C)cc1C(=O)Nc1cn(C)c(C(=O)NCCC(=O)N2CCC(N3CCNCC3)CC2)n1 [Compound B-160] | < 6.00 |
| COCCOCCOCCOCCN(CCCCCn1cc(NC(=O)c2nc(NC(=O)CCNC(=O)c3cc(NC(=O)c4nccn4C)cn3C)cn2C)cc1C(=O)NCCCC(=O)Nc1cn(C)c(C(=O)NCCC(=O)Nc2cc(C(=O)Nc3cn(C)c(C(=O)NCCC(=O)N4CCC(N5CCNCC5)CC4)n3)n(C)c2)n1)CCOCCOCCOCCOC [Compound B-162] | < 6.00 |
| Cn1cc(NC(=O)c2nc(NC(=O)CCNC(=O)c3cc(NC(=O)c4nccn4C)cn3C)cn2C)cc1C(=O)NCCCC(=O)Nc1cn(C)c(C(=O)NCCC(=O)Nc2cc(C(=O)Nc3cn(C)c(C(=O)NCCC(=O)NCCOCCOCCOCCN4CCC(C#CC#CC5CCN(Cc6ccc(C(C)(C)C)cc6)CC5)CC4)n3)n(C)c2)n1 [Compound B-176] | < 6.00 |
| Cn1cc(NC(=O)c2nc(NC(=O)CCNC(=O)c3cc(NC(=O)c4nccn4C)cn3C)cn2C)cc1C(=O)NCCCC(=O)Nc1cn(C)c(C(=O)NCCC(=O)Nc2cc(C(=O)Nc3cn(C)c(C(=O)NCCC(=O)NCCCCCN4CCC(C#CC#CC5CCN(Cc6ccc(C(C)(C)C)cc6)CC5)CC4)n3)n(C)c2)n1 [Compound B-178] | < 6.00 |
| Cn1cc(NC(=O)c2nc(NC(=O)CCNC(=O)c3cc(NC(=O)c4nccn4C)cn3C)cn2C)cc1C(=O)NCCCC(=O)Nc1cn(C)c(C(=O)NCCC(=O)Nc2cc(C(=O)Nc3cn(C)c(C(=O)NCCC(=O)Nc4ccc(C(C)(C)C)cc4)n3)n(C)c2)n1 [Compound B-180] | < 6.00 |
| Cn1cc(NC(=O)c2nc(NC(=O)CCNC(=O)c3cc(NC(=O)c4nccn4C)cn3C)cn2C)cc1C(=O)NCCCC(=O)Nc1cn(C)c(C(=O)NCCC(=O)Nc2cc(C(=O)Nc3cn(C)c(C(=O)NCCC(=O)NCCNc4ccc(C(C)(C)C)cc4)n3)n(C)c2)n1 [Compound B-181] | < 6.00 |
| CCCCCC(=O)N1CCC(C#CC#CC2CCN(CCCCCNC(=O)CCNC(=O)c3nc(NC(=O)c4cc(NC(=O)CCNC(=O)c5nc(NC(=O)CCCNC(=O)c6cc(NC(=O)c7nc(NC(=O)CCNC(=O)c8cc(NC(=O)c9nccn9C)cn8C)cn7C)cn6C)cn5C)cn4C)cn3C)CC2)CC1 [Compound B-182] | 6.00 to 6.30 |
| CCCCCCN1CCC(C#CC#CC2CCN(CCCCCNC(=O)CCNC(=O)c3nc(NC(=O)c4cc(NC(=O)CCNC(=O)c5nc(NC(=O)CCCNC(=O)c6cc(NC(=O)c7nc(NC(=O)CCNC(=O)c8cc(NC(=O)c9nccn9C)cn8C)cn7C)cn6C)cn5C)cn4C)cn3C)CC2)CC1 [Compound B-183] | < 6.00 |
| CC(C)CCC(=O)N1CCC(C#CC#CC2CCN(CCCCCNC(=O)CCNC(=O)c3nc(NC(=O)c4cc(NC(=O)CCNC(=O)c5nc(NC(=O)CCCNC(=O)c6cc(NC(=O)c7nc(NC(=O)CCNC(=O)c8cc(NC(=O)c9nccn9C)cn8C)cn7C)cn6C)cn5C)cn4C)cn3C)CC2)CC1 [Compound B-184] | < 6.00 |
| Cn1cc(NC(=O)c2nc(NC(=O)CCNC(=O)c3cc(NC(=O)c4nccn4C)cn3C)cn2C)cc1C(=O)NCCCC(=O)Nc1cn(C)c(C(=O)NCCC(=O)Nc2cc(C(=O)Nc3cn(C)c(C(=O)NCCC(=O)NCC#CC#CC4CCN(C(=O)c5ccc(C(C)(C)C)cc5)CC4)n3)n(C)c2)n1 [Compound B-188] | < 6.00 |
| Cn1cc(NC(=O)c2nc(NC(=O)CCNC(=O)c3cc(NC(=O)c4nccn4C)cn3C)cn2C)cc1C(=O)NCCCC(=O)Nc1cn(C)c(C(=O)NCCC(=O)Nc2cc(C(=O)Nc3cn(C)c(C(=O)NCCC(=O)NCC#CC#CC4CCN(Cc5ccc(C(C)(C)C)cc5)CC4)n3)n(C)c2)n1 [Compound B-189] | < 6.00 |
| CC(C)CCC(=O)N1CCC(C#CC#CCNC(=O)CCNC(=O)c2nc(NC(=O)c3cc(NC(=O)CCNC(=O)c4nc(NC(=O)CCCNC(=O)c5cc(NC(=O)c6nc(NC(=O)CCNC(=O)c7cc(NC(=O)c8nccn8C)cn7C)cn6C)cn5C)cn4C)cn3C)cn2C)CC1 [Compound B-190] | < 6.00 |
| CC(C)CCCN1CCC(C#CC#CCNC(=O)CCNC(=O)c2nc(NC(=O)c3cc(NC(=O)CCNC(=O)c4nc(NC(=O)CCCNC(=O)c5cc(NC(=O)c6nc(NC(=O)CCNC(=O)c7cc(NC(=O)c8nccn8C)cn7C)cn6C)cn5C)cn4C)cn3C)cn2C)CC1 [Compound B-191] | 6.30 to 7.00 |
| Cn1cc(NC(=O)c2nc(NC(=O)CCNC(=O)c3cc(NC(=O)c4nccn4C)cn3C)cn2C)cc1C(=O)NCCCC(=O)Nc1cn(C)c(C(=O)NCCC(=O)Nc2cc(C(=O)Nc3cn(C)c(C(=O)NCCC(=O)NCC#CC#CC4CCN(C(=O)OC(C)(C)C)CC4)n3)n(C)c2)n1 [Compound B-194] | < 6.00 |
| Cn1cc(NC(=O)c2nc(NC(=O)CCNC(=O)c3cc(NC(=O)c4nccn4C)cn3C)cn2C)cc1C(=O)NCCCC(=O)Nc1cn(C)c(C(=O)NCCC(=O)Nc2cc(C(=O)Nc3cn(C)c(C(=O)NCCC(=O)N4CCC(O)(C#CC5CCN(C(=O)OC(C)(C)C)CC5)CC4)n3)n(C)c2)n1 [Compound B-195] | < 6.00 |
| Cn1cc(NC(=O)c2nc(NC(=O)CCNC(=O)c3cc(NC(=O)c4nccn4C)cn3C)cn2C)cc1C(=O)NCCCC(=O)Nc1cn(C)c(C(=O)NCCC(=O)Nc2cc(C(=O)Nc3cn(C)c(C(=O)NCCC(=O)N4CCC(O)(C#CC5CCNCC5)CC4)n3)n(C)c2)n1 [Compound B-196] | < 6.00 |
| Cn1cc(NC(=O)c2nc(NC(=O)CCNC(=O)c3cc(NC(=O)c4nccn4C)cn3C)cn2C)cc1C(=O)NCCCC(=O)Nc1cn(C)c(C(=O)NCCC(=O)Nc2cc(C(=O)Nc3cn(C)c(C(=O)NCCC(=O)N4CCC(C#CC5(O)CCN(C(=O)OCC6c7ccccc7-c7ccccc76)CC5)CC4)n3)n(C)c2)n1 [Compound B-197] | 6.00 to 6.30 |
| Cn1cc(NC(=O)c2nc(NC(=O)CCNC(=O)c3cc(NC(=O)c4nccn4C)cn3C)cn2C)cc1C(=O)NCCCC(=O)Nc1cn(C)c(C(=O)NCCC(=O)Nc2cc(C(=O)Nc3cn(C)c(C(=O)NCCC(=O)N4CCC(C#CC5(O)CCNCC5)CC4)n3)n(C)c2)n1 [Compound B-198] | 6.00 to 6.30 |
| Cn1cc(NC(=O)c2nc(NC(=O)CCNC(=O)c3cc(NC(=O)c4nccn4C)cn3C)cn2C)cc1C(=O)NCCCC(=O)Nc1cn(C)c(C(=O)NCCC(=O)Nc2cc(C(=O)Nc3cn(C)c(C(=O)NCCOCCOCCOCCN4CCC(C#CC#CC5CCN(C(=O)OC(C)(C)C)CC5)CC4)n3)n(C)c2)n1 [Compound B-199] | 6.30 to 7.00 |
| Cn1cc(NC(=O)c2nc(NC(=O)CCNC(=O)c3cc(NC(=O)c4nccn4C)cn3C)cn2C)cc1C(=O)NCCCC(=O)Nc1cn(C)c(C(=O)NCCC(=O)Nc2cc(C(=O)Nc3cn(C)c(C(=O)N4CC(c5cnc(CNC(=O)OCc6ccccc6)[nH]5)C4)n3)n(C)c2)n1 [Compound B-201] | < 6.00 |
| COCCOCCOCCOCCOCCOCCNC(=O)c1nc(NC(=O)c2cc(NC(=O)CCNC(=O)c3nc(NC(=O)CCCNC(=O)c4cc(NC(=O)c5nc(NC(=O)CCNC(=O)c6cc(NC(=O)c7nccn7C)cn6C)cn5C)cn4C)cn3C)cn2C)cn1C [Compound B-204] | 6.00 to 6.30 |
| Cn1cc(NC(=O)c2nc(NC(=O)CCNC(=O)c3cc(NC(=O)c4nccn4C)cn3C)cn2C)cc1C(=O)NCCCC(=O)Nc1cn(C)c(C(=O)NCCC(=O)Nc2cc(C(=O)NCCOCCOCCOCCN3CCC(C#CC#CC4CCN(C(=O)OC(C)(C)C)CC4)CC3)n(C)c2)n1 [Compound B-210] | < 6.00 |
| CN(C)CCCNC(=O)c1cc(NC(=O)CCNC(=O)c2nc(NC(=O)CCCNC(=O)c3cc(NC(=O)c4nc(NC(=O)CCNC(=O)c5cc(NC(=O)c6nccn6C)cn5C)cn4C)cn3C)cn2C)cn1C [Compound B-212] | < 6.00 |
| Cn1cc(NC(=O)c2nc(NC(=O)CCNC(=O)c3cc(NC(=O)c4nccn4C)cn3C)cn2C)cc1C(=O)NCCCC(=O)Nc1cn(C)c(C(=O)NCCC(=O)Nc2cc(C(=O)Nc3cn(C)c(C(=O)NCCCCCCCNC(=O)c4cccc(C(=O)O)c4)n3)n(C)c2)n1 [Compound B-213] | < 6.00 |

— US20250368628A1, “METHODS AND COMPOUNDS FOR MODULATING INHERITED GENETIC DISEASES” (Design Therapeutics, Inc., priority 2022, published 2025)
